According to patent US20100055183A1 (OsteoGeneX Inc., priority 2008, published 2010):

How the values were obtained:
[1] = test system: Wnt pathway; test: Modulation of the Wnt pathway (FIGS. 1 and 2); conditions: doses of 2.5 ng (low), 60 ng (medium), 125 ng (high)
Excerpt: (§1) Compounds useful in the methods of the present invention can be identified via a variety of methods known to one of skill in the art. Several exemplary methods for identifying such antagonists are described herein, including cell-based and in vitro techniques (Journal of Bone and Mineral Research 2006, 21(11), 1738-1749). A general method of identifying SOST antagonists involves evaluating the effects of antagonist candidates on bone formation under controlled conditions. Preferably bone formation is determined using micro-CT techniques on live animals. Preferred animals include rodents, more preferred are primates. Femur, tibia and vertebrae bones are particularly useful subjects for such study.

[2] = test system: mouse; test: Mouse bone formation assay, micro-CT after complete dosing schedule; assay type: in vivo; conditions: versus control solution
Excerpt: as §1
Briefly, the test animal is treated with a predetermined dose of a SOST antagonist candidate. […]
Once the dosing schedule has been completed, both test and control animals are examined to determine the quantity of bone formation present. […] Where necessary, levels of bone formation can be calculated by determining the volume of bone formation present in each animal. […]
For example, the mouse test animal is treated with a predetermined dose of a SOST antagonist candidate for a complete dosing schedule. […] Once the dosing schedule has been completed, both test and control animals are examined with sacrifice using micro-CT to determine the quantity of bone formation present.

[3] = test system: C57BL/6 mice; test: Bone volume in treated mice by pQCT / micro-CT analysis; assay type: in vivo, mouse; conditions: four month old male C57BL/6 mice, 0.1 mg/kg, daily i.p. for 30 days
Protocol: Four month old male C57BL/6 mice were treated daily with saline vehicle or the sclerostin inhibitor of trimeprazine tartrate at 0.1 mg/kg (via i.p) for 30 days. […]

[4] = test system: C57BL/6 mice; test: Serum osteocalcin bone formation marker, EIA Elisa, in treated mice; assay type: in vivo, mouse; conditions: four month old male C57BL/6 mice, 5 mg/kg, daily i.p. for 30 days
Excerpt: […] Study endpoints included a biochemical marker of bone formation; osteocalcin, measured by EIA Elisa, and measurement of tibia trabecular bone volume by mico-CT analysis.

Molecule	modulation of the Wnt pathway to promote bone growth [1]	bone growth (quantity of bone formation present) [2]	increase in bone volume for the femur over baseline controls [3]	percent increase in serum osteocalcin bone formation marker over saline controls [4] [%]
CCN(CC)C(C)CN1c2ccccc2Sc2ccccc21 (stereo not drawn) [ethopropazine]	modulating the Wnt pathway	promoting bone growth		
CC(CN(C)C)CN1c2ccccc2Sc2ccccc21 (stereo not drawn) [trimeprazine]	modulating the Wnt pathway	promoting bone growth		
trimeprazine tartrate			about 8%	46
